Laboratory results as given in US20260152527A1, “NOVEL MELANOCORTIN ANALOGS” (priority 2022, published 2026).
Positions of bridges follow the written chain, without caps; N, C: chain ends. Non-standard residues stand in square brackets, D forms with d. Residues, ends and D or L forms follow the SMILES beside them. Triazole bridges read from a SMILES are 1,4-linked. Lys(N3) = [N-]=[N+]=NCCCC[C@H](N)C(=O)O; Orn(N3) = [N-]=[N+]=NCCC[C@H](N)C(=O)O; R8 = C=CCCCCCC[C@@](C)(N)C(=O)O; S5 = C=CCCC[C@](C)(N)C(=O)O; Hpra = C#CCC[C@H](N)C(=O)O; dPra = C#CC[C@@H](N)C(=O)O; Nle = CCCC[C@H](N)C(=O)O; Pra = C#CC[C@H](N)C(=O)O

biological target: T1, human recombinant MC5R (Homo sapiens, UniProt P33032); assay: Ca2+ signalling functional assay, MC5R stable cell line (CHO-K1/Ga15); format: cell-based; conditions: calcium flux functional assay
T1 construct: host or cells: CHO-K1/Ga15
T1 sequence (P33032 whole entry): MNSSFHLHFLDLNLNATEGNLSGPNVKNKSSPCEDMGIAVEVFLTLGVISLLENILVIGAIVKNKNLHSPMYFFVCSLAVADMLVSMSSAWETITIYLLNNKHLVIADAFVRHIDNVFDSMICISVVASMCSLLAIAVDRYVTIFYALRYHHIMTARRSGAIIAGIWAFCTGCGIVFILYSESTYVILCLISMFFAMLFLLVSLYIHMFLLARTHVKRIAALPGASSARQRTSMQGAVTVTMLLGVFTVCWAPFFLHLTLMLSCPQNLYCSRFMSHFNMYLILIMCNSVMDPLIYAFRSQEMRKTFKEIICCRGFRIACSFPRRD
Description: The Ca^2+ signalling functional assay was performed on a human recombinant MC5R stable cell line (CHO-K1/Ga15, GenScript). The cells were cultured at 37° C. and 5% C02 with culture medium (90% Ham's F-12K (Kaighn's)+10% FBS+400 μg/mL G418+100 μg/mL Hygromycin B). Cells were washed with PBS and then detached by incubation with 0.05% (w/v) Trypsin EDTA at 37° C. for 2 to 5 mins. Detached cells were suspended in Ham's F-12K (Kaighn's) (containing 10% FBS) and a 50 μL cell suspension is seeded into each well of a 384-well assay plate at a density of 15,000 cells/well. Cells were allowed to settle overnight at 37° C., 5% CO2. […] Then, 100 nL of compounds were transferred to the compound plate by the Echo machine. Thirty microliter assay buffer was added to the compounds plate and then shaken for 20-40 minutes. The plates were placed on the FLIPR and 15 μL of the compound was added to each well, then calcium flux signal was measured.

Row | IC50 [nM] | MC5R IC50 | Compound
1 | > 10000 |  | CC(=O)N[C@@H](CCC(=O)O)C(=O)N[C@@H](Cc1c[nH]cn1)C(=O)N[C@@H](Cc1ccccc1)C(=O)N[C@@H](CCCNC(=N)N)C(=O)N[C@@H](Cc1c[nH]c2ccccc12)C(=O)NCC(=O)N[C@@H](CCCCN)C(=O)N1CCC[C@H]1C(=O)N[C@H](C(N)=O)C(C)C [KR-004]
2 | > 10000 |  | CCCC[C@H](NC(C)=O)C(=O)N[C@H]1CCCCn2cc(nn2)C[C@@H](C(N)=O)NC(=O)[C@H](Cc2c[nH]c3ccccc23)NC(=O)[C@H](CCCNC(=N)N)NC(=O)[C@H](Cc2ccccc2)NC(=O)[C@H](Cc2c[nH]cn2)NC1=O [KR-008, Ac-Nle-[Lys(N3)-His-Phe-Arg-Trp-Pra]-NH2] (Ac-[Nle][Lys(N3)]HFRW[Pra]-NH2; triazole 2-7)
3 | > 10000 |  | CC(=O)N[C@H]1CCCCn2cc(nn2)C[C@@H](C(N)=O)NC(=O)CNC(=O)[C@H](Cc2c[nH]c3ccccc23)NC(=O)[C@H](CCCNC(=N)N)NC(=O)[C@H](Cc2ccccc2)NC(=O)[C@H](Cc2c[nH]cn2)NC(=O)[C@H](CCC(=O)O)NC1=O [KR-010, Ac-[Lys(N3)-Glu-His-Phe-Arg-Trp-Gly-Pra]-NH2] (Ac-[Lys(N3)]EHFRWG[Pra]-NH2; triazole 1-8)
4 |  | Not fit | N=C(N)NCCC[C@@H]1NC(=O)[C@H](Cc2ccccc2)NC(=O)[C@H](Cc2c[nH]cn2)NC(=O)[C@H](CCC(=O)O)NC(=O)CSC[C@@H](C(N)=O)NC(=O)CNC(=O)[C@H](Cc2c[nH]c3ccccc23)NC1=O [KR-012, Cyclo(-Ac-Glu-His-Phe-Arg-Trp-Gly-Cys)-NH2] ({CH2CO}-EHFRWGC-NH2; thioether N-7)
5 | > 10000 |  | CC(=O)N[C@]1(C)CCCCCCC=CCCC[C@@](C)(C(N)=O)NC(=O)CNC(=O)[C@H](Cc2c[nH]c3ccccc23)NC(=O)[C@H](CCCNC(=N)N)NC(=O)[C@H](Cc2ccccc2)NC(=O)[C@H](Cc2c[nH]cn2)NC(=O)[C@H](CCC(=O)O)NC1=O [KR-015, Ac-R8-Glu-His-Phe-Arg-Trp-Gly-S5-NH2] (Ac-[R8]EHFRWG[S5]-NH2; staple 1-8)
6 | 40.3 |  | CCCC[C@H](NC(C)=O)C(=O)N[C@H]1CCCn2cc(nn2)CC[C@@H](C(=O)N[C@@H](CCCCN)C(N)=O)NC(=O)[C@H](Cc2c[nH]c3ccccc23)NC(=O)[C@H](CCCNC(=N)N)NC(=O)[C@@H](Cc2ccccc2)NC(=O)[C@H](Cc2c[nH]cn2)NC1=O [KR-068, Ac-Nle-[Orn(N3)-His-DPhe-Arg-Trp-Hpra]-Lys-NH2] (Ac-[Nle][Orn(N3)]H[dF]RW[Hpra]K-NH2; triazole 2-7)
7 | > 10000 |  | Ac-EHFRWGKP-NH2 [KR-007]

biological target: T2, human recombinant MC3R (Homo sapiens, UniProt P41968); assay: Ca2+ signalling functional assay, MC3R stable cell line (CHO-K1/Gα15); format: cell-based; conditions: calcium flux functional assay
T2 construct: host or cells: CHO-K1/Gα15
T2 sequence (P41968 whole entry): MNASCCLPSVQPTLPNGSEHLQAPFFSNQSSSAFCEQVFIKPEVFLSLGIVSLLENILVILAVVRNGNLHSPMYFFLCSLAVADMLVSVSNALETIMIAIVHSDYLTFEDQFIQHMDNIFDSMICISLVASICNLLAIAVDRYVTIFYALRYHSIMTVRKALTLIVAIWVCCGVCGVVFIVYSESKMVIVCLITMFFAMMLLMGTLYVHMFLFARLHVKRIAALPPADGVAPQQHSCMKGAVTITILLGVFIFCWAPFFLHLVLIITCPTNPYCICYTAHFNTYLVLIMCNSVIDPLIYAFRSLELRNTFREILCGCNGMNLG
Description: The Ca^2+ signalling functional assay was performed on a human recombinant MC3R stable cell line (CHO-K1/Gα15, GenScript). The cells were cultured at 37° C. and 5% CO2 with culture medium (90% Ham's F-12K (Kaighn's)+10% FBS+200 μg/mL Zeocin+100 μg/mL Hygromycin B). Cells were washed with PBS and then detached by incubation with 0.05% (w/v) Trypsin EDTA at 37° C. for 2-5 mins. Detached cells were suspended in Ham's F-12K (Kaighn's) (containing 10% FBS) and a 50 μL cell suspension was seeded into each well of a 384-well assay plate at a density of 10,000 cells/well. Cells were allowed to settle overnight at 37° C., 5% CO2. […] The compounds and reference compound ACTH were diluted in 4 folds starting from 50 uM. Then, 500 nL of compounds were transferred to the compound plate by the Echo machine. 30 uL assay buffer was added into the compounds plate and then shaken for 20-40 minutes. The plates were then placed on the FLIPR Tetra High-Throughput Cellular Screening System (FLIPR®, Molecular Devices) and 15 μL of the compound was added to each well, then calcium flux signal was measured.

Row | IC50 [nM] | Compound
8 | > 50000 | CSCC[C@H](NC(=O)[C@H](CO)NC(=O)[C@H](Cc1ccc(O)cc1)NC(=O)[C@H](CO)NC(C)=O)C(=O)N[C@@H](CCC(=O)O)C(=O)N[C@@H](Cc1c[nH]cn1)C(=O)N(C)[C@H](Cc1ccccc1)C(=O)N[C@@H](CCCNC(=N)N)C(=O)N[C@@H](Cc1c[nH]c2ccccc12)C(=O)NCC(=O)N[C@@H](CCCCN)C(=O)N1CCC[C@H]1C(=O)N[C@H](C(N)=O)C(C)C [KR-025, Ac-Ser-Tyr-Ser-Met-Glu-His-(D-NMePhe)-Arg-Trp-Gly-Lys-Pro-Val-NH2]

biological target: T3, human recombinant MC4R (Homo sapiens, UniProt P32245); assay: Ca2+ signalling functional assay, MC4R stable cell line (CHO-K1/Gα15); format: cell-based; conditions: calcium flux functional assay
T3 construct: host or cells: CHO-K1/Gα15
T3 sequence (P32245 whole entry): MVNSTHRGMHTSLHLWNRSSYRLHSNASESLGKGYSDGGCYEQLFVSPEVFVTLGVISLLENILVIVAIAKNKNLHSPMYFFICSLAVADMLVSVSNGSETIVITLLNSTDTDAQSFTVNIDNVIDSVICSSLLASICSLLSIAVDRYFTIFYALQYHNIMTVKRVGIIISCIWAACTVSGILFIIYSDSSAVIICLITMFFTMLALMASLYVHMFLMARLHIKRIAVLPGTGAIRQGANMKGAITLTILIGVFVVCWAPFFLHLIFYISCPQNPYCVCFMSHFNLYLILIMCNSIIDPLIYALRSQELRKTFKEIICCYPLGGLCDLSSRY
Description: The Ca^2+ signalling functional assay was performed on a human recombinant MC4R stable cell line (CHO-K1/Gα15, GenScript). The cells were cultured at 37° C. and 5% CO2 with culture medium (90% Ham's F-12K (Kaighn's)+10% FBS+8 μg/mL Puromycin+100 μg/mL Hygromycin B). Cells were washed with PBS and then detached by incubation with 0.05% (w/v) Trypsin EDTA at 37° C. for 2-5 mins. Detached cells were suspended in Ham's F-12K (Kaighn's) (containing 10% FBS) and a 50 μL cell suspension was seeded into each well of a 384-well assay plate at a density of 15,000 cells/well. Cells were allowed to settle overnight at 37° C., 5% CO2. The next day, the assay plate was centrifuged and the media was replaced with dye (1×) in assay buffer (containing HBSS, HEPES 20 mM and probenecid 1 mM) and incubated for 1 h at 37° C. […] Then, 100 nL of compounds were transferred to the compound plate by the Echo machine. 30 μL assay buffer was added to the compounds plate and then shaken for 20 to 40 minutes. The plates were placed on the FLIPR and 15 μL of the compound was added to each well, then calcium flux signal was measured.

Row | IC50 [nM] | Compound
9 | 67.1 | CSCC[C@H](NC(=O)[C@H](CO)NC(=O)[C@H](Cc1ccc(O)cc1)NC(=O)[C@H](CO)NC(C)=O)C(=O)N[C@@H](CCC(=O)O)C(=O)N[C@@H](Cc1c[nH]cn1)C(=O)N[C@@H](Cc1ccccc1)C(=O)N[C@@H](CCCNC(=N)N)C(=O)N[C@@H](Cc1c[nH]c2ccccc12)C(=O)NCC(=O)N[C@@H](CCCCN)C(=O)N1CCC[C@H]1C(N)=O [KR-005]
10 | 84.1 | CCCC[C@H](NC(C)=O)C(=O)N1CCC(=O)NCC[C@@H](C(=O)N[C@@H](Cc2c[nH]c3ccccc23)C(N)=O)NC(=O)[C@H](CCCNC(=N)N)NC(=O)[C@@H](Cc2ccccc2)NC(=O)[C@H](Cc2c[nH]cn2)NC(=O)C1 [KR-027, Ac-Nle-cyc(NGlu-His-DPhe-Arg-Dab)-Trp-NH2]
11 | 84.1 | CCCC[C@H](NC(C)=O)C(=O)N[C@H]1CCCCn2cc(nn2)C[C@H](C(=O)N[C@@H](CCCCN)C(N)=O)NC(=O)[C@H](Cc2c[nH]c3ccccc23)NC(=O)[C@H](CCCNC(=N)N)NC(=O)[C@@H](Cc2ccccc2)NC(=O)[C@H](Cc2c[nH]cn2)NC1=O [KR-070, Ac-Nle-[Lys(N3)-His-DPhe-Arg-Trp-DPra]-Lys-NH2] (Ac-[Nle][Lys(N3)]H[dF]RW[dPra]K-NH2; triazole 2-7)

biological target: T4, human recombinant MC1R (Homo sapiens, UniProt Q01726); assay: cyclic AMP (cAMP) functional assay, MC1R stable cell line (CHO-K1); format: cell-based; conditions: cAMP functional assay;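 note: cells with test compound for 60 min at room temperature in buffer containing IBMX, then cAMP quantified by Eu-cAMP tracer and ULight anti-cAMP detection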
T4 construct: host or cells: CHO-K1
T4 sequence (Q01726 whole entry): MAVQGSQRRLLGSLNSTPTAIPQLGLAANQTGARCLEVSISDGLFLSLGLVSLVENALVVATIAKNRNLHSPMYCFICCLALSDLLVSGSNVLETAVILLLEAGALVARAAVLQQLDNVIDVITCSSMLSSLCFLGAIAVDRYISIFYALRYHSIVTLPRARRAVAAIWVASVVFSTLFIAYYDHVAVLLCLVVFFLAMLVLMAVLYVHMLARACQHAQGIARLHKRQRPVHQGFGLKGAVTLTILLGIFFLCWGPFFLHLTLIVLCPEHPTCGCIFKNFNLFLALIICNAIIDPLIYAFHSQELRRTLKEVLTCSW
Description: The cyclic AMP (cAMP) functional assay was performed on a human recombinant MC1R stable cell line (CHO-K1, GenScript). The cells were cultured at 37° C. and 5% CO2 with culture medium (90% Ham's F-12K (Kaighn's)+10% FBS+400 μg/mL G418). […] Then, 100 nL of compounds were transferred to the assay plate by the Echo machine. Cells were washed with PBS and then detached by incubation with 0.05% (w/v) Trypsin EDTA at 37° C. for 2 to 5 mins. Cells were collected with stimulation buffer (1×HBSS with 5 mM HEPES+0.2 mM IBMX+0.1% BSA) and 10 ul of cells (the density of 2,500 cells/well) solution was transferred to assay plate, centrifuged at 600 rpm for 3 min and then incubated with compounds at room temperature for 60 min. After that, 5 μL 4×Eu-cAMP tracer solution and 5 μL 4×ULight™-anti-cAMP solution was added into the cells, centrifuged at 600 rpm for 3 min and incubated for 60 min. The cAMP signal was detected with Envision® Multimode Plate Reader (PerkinElmer).

Row | IC50 [nM] | Compound
12 | 0.093 | CSCC[C@H](NC(=O)[C@H](CO)NC(=O)[C@H](Cc1ccc(O)cc1)NC(=O)[C@H](CO)NC(C)=O)C(=O)N[C@@H](CCC(=O)O)C(=O)N[C@@H](Cc1c[nH]cn1)C(=O)N[C@@H](Cc1ccccc1)C(=O)N[C@@H](CCCNC(=N)N)C(=O)N[C@@H](Cc1c[nH]c2ccccc12)C(=O)NCC(=O)N[C@@H](CCCCN)C(=O)N1CCC[C@H]1C(N)=O [KR-005]
13 | 0.04 | CCCC[C@H](NC(C)=O)C(=O)N[C@H]1CCCn2cc(nn2)CC[C@@H](C(=O)N[C@@H](CCCCN)C(N)=O)NC(=O)[C@H](Cc2c[nH]c3ccccc23)NC(=O)[C@H](CCCNC(=N)N)NC(=O)[C@@H](Cc2ccccc2)NC(=O)[C@H](Cc2c[nH]cn2)NC1=O [KR-068, Ac-Nle-[Orn(N3)-His-DPhe-Arg-Trp-Hpra]-Lys-NH2] (Ac-[Nle][Orn(N3)]H[dF]RW[Hpra]K-NH2; triazole 2-7)
